Results reported in patent US5869023A, “Composition for MRI comprising both a positive and a negative contrast agent” (Nycomed Imaging AS, priority 1993, dated 1999).
“Also recorded” adds a separate entry of the source.

Assays:
[1] = test system: infarcted and nonischemic myocardium; conditions: cited from earlier work; for distribution / enhancement in 6-hour-old myocardial infarction: porcine model
[2] = test system: normal and infarcted myocardium; conditions: rat, in vivo; for concentration ratio, reperfused infarcted vs normal myocardium: 15 min
Experimental: Thirty seven Sprague Dawley rats (200-400 gm) were anaesthetized by an intraperitoneal injection of sodium pentobarbital (50 mg/kg body weight). After tracheostomy, animals were ventilated using a small animal respirator. The heart was exposed following a left thoracotomy through the 4th intercostal space and a surgical suture was used to ligate the anterior branch of the left coronary artery near its origin beneath the left atrial appendage using a snare ligature. The presence of occlusion was visually confirmed by noting the development of myocardial cyanosis. After 1 hour occlusion, reperfusion was initiated by loosening the snare ligature. A catheter was placed into a femoral vein to inject contrast media. All animals which received contrast agent were administered doses at 45 minutes of reflow. After 1 hour reperfusion, each heart was excised and rinsed in 0.9% saline, patted dry with gauze, and a cotton swab was inserted into the left ventricular cavity to expand the chamber. Each heart was wrapped in clear plastic wrap to minimise dehydration during imaging.
To group 1 rats (n=9) were administered 0.2 mmol/kg of GdDTPA-BMA immediately followed by 1.0 mmol/kg of DyDTPA-BMA. Group 2 (n=7) received no contrast agents. Two spin-echo images were obtained from the midventricle of each heart, a T1-weighted image with TR/TE=300/20 and NEX=4, and T2-weighted image with TR/TE=3000/60 and NEX=2. After imaging, each heart was sliced at the midventricular level and soaked in a 2% solution of TTC at 37° C. for 15 minutes to define myocardial infarction.
Samples of normal and infarcted myocardium were retained for analysis of Gd and Dy content by means of ICP-MS.

[3] = test system: infarcted and non-ischemic myocardium; assay: Microdialysis kinetics of Gd and Dy in extracellular space of pig myocardium (Example 5); conditions: for concentration course in dialysate / duration of plateau in dialysate: infarcted myocardium; for concentration in dialysate after early peak: non-ischemic myocardium
Experimental: (§1) Myocardial infarction was induced in 5 anaesthetized pigs of either sex (weight 25-30 kg) by ligating a diagonal branch of the left anterior descending artery (LAD), at thoracotomy. Microdialysate probes were inserted in ischemic and non-ischemic myocardium. The pigs were sacrificed 2 hours after administration of contrast media. 4 hour post occlusion Gd-DTPA-BMA (0.3 mmol/kg) and Dy-DTPA-BMA (1.0 mmol/kg) were simultaneously administered in vivo with an injection time of one minute. The total occlusion time was thus 6 hours.
(§2) The microdialysate was collected every 10 minutes and measured for gadolinium and dysprosium using inductively coupled plasma atomic emission spectrometry (ICP-AES). The microdialysis equipment consisted of a CMA®/20 microdialysis probe with a 10 mm flexible membrane and a diameter of 0.5 mm (CMA AB, Stockholm, Sweden). […] The probe was perfused with a Krebs-Ringer phosphate buffer (pH 7.4) at a speed of 2 μl/min and a dead space, in the system, of 10 μl. […] One probe was inserted into the central part of the ischemic area and another probe was placed in non-ischemic myocardium in the lateral wall using the Seldinger technique to minimize mechanical injury to myocardium and probe membrane. A CMA® microdialysis pump (CMA 100) was used with two syringes to perfuse the probes.
(§3) In addition, gadolinium and dysprosium were determined in dialysates from five pigs by ICP-AES. Twenty μl portions were sampled in plastic tubes and kept frozen until analysis. The samples were diluted to 5.02 ml with ultra-pure water. To enhance the sensitivity of measurements, an ultrasonic nebulizer was used instead of the pneumatic one. The limit of detection for the method is about 2 μg/l for both gadolinium and dysprosium in the measuring solution. This means that about 3 μmol/l can be detected in the dialysates.

[4] = test system: myocardial infarction; conditions: first positive, second negative agent, sequential; cited from earlier work
[5] = test system: infarcted and non-ischemic myocardium; conditions: pig, in vivo; for time of early peak in dialysate: iv
Experimental: as §1, §2, §3

[6] = test system: infarcted and non-ischemic myocardium; assay: MR imaging of excised pig hearts, double contrast (Example 5); format: in vivo
Experimental: The total occlusion time was thus 6 hours.
Following sacrifice, the hearts were extirpated and rinsed in isotonic saline to remove remaining blood. The hearts were examined ex vivo at ambient temperature in the MR equipment and then cut into approximately 8 mm thick transverse slices and soaked for 10-20 minutes in a 1% aqueous solution of triphenyltetrazolium chloride (TTC) at 37° C. TTC stains non-ischemic myocardium brick red. The slices were inspected visually for unstained areas of infarction.
MR images were obtained in an identical manner to that described in Example 4.
In the transverse images, three ROI's were placed in infarcted myocardium. Four ROI's were placed in non-ischemic myocardium, two in the anterior wall and two in the posterior wall of the left ventricle. The mean signal intensity (S) was measured in each ROI. One ROI was placed anterior to the heart in an area free from visible artefacts, in order to measure the standard deviation (SD) of the background signal. These measurements were used to calculate the contrast (C) and contrast-to-noise (C/N) ratios between infarcted (inf) and non-ischemic (nonisch) myocardium using the formulae defined in Example 4.
In each heart, non-ischemic myocardium and infarction were represented by a mean value from measurements in two slices.

[7] = test system: infarcted and nonischemic myocardium; assay: Ex vivo MR imaging of pig hearts, myocardial infarction model (Example 4); format: in vivo; conditions: Dy DTPA-BMA 1.0 mmol/kg plus Gd DTPA-BMA 0.3 mmol/kg
Experimental: A control group received no contrast agent.
Following sacrifice, the hearts were extirpated and rinsed in isotonic saline to remove remaining blood. The hearts were examined ex vivo at ambient temperature in the MR equipment and then cut into thin transverse slices and soaked for about 20 minutes in a 1% aqueous solution of triphenyltetrazolium chloride (TTC) at 37° C. The slices were then visually inspected for unstained areas corresponding to infarction.
MR examination was performed in a superconductive whole body equipment (Siemens Magnetom) operating at 0.5 T. The hearts were investigated with saggital and transverse multi-slice spin-echo images with TR/TE of 500/30 (two excitations), 1500/30,70 and 1500/30,120 (single excitations) using a saddle-shaped coil with a diameter of 13 cm. The following parameters were used: Slice thickness 7 mm. Interslice gap 20%. Acquisition matrix 256×256 giving a resolution of 0.7×0.7 mm.
In the transverse images regions of interest (ROI's) were placed in infarcted and nonischemic myocardium, in a corn oil phantom and in front of the heart (noise). The mean signal intensity (SI) was measured in each ROI.
In addition, the SD was measured in the noise. […]

[8] = test system: Human blood samples; assay: In vitro MR imaging of contrast agent doped human blood samples, viable vs freeze-injured cells (Example 2); format: cell-based
Experimental: Human blood samples with different hematocrit readings (Ht) of 27%, 45% and 69% were prepared to provide sample models for different levels of compartmentalization between intracellular and extracellular fluids. To initiate cellular level injury, samples with these Ht readings were frozen to effect cell membrane destruction. Finally a control sample of cell free plasma was also used.
To the test samples were added (a) a positive ECF contrast agent (GdDTPA-BMA at a dosage corresponding to 0.2 mmol Gd/kg); (b) a negative ECF contrast agent (DyDTPA-BMA at a dosage corresponding to 0.6 mmol Dy/kg); and (c) a positive ECF contrast agent and a negative ECF contrast agent (GdDTPA-BMA and DyDTPA-BMA at dosages corresponding to 0.2 mmol Gd/kg and 0.6 mmol Dy/kg).
These doped samples, and controls to which no contrast agent was added, were imaged together at ambient temperature in the head coil of a Siemens Magnetom operating at 0.5 T using T1 -weighted (TR/TE 500/30 ms), T2 -weighted (TR/TE 1500/90 ms) and proton density-weighted (TR/TE 1500/30 ms) echo sequences. The signal intensity for each contrast agent doped sample was normalized to the corresponding undoped sample and the results are set forth as ratios in FIGS. 1 to 3 hereto, squares, circles and diamonds representing the ratios for T1 -weighted, PD-weighted and T2 -weighted sequences respectively.

[9] = test system: normal and reperfused infarcted myocardium; assay: MR imaging and T2/T2* relaxation of rat hearts after single agents, protocol 2 (Example 6); format: in vivo, Sprague Dawley rats; conditions: for T2, infarct / T2, normal myocardium: four-echo T2-weighted, TR=4000 ms; for GRE signal intensity, infarct / GRE signal intensity, normal myocardium: gradient recalled echo images, Dy 1.0 mmol/kg n=11 or Gd 0.2 mmol/kg n=7; for T2*, infarct / T2*, normal myocardium: gradient-recalled images, TE=10, 15, 20 and 30 ms; for SE T1 signal intensity, infarct / SE T1 signal intensity, normal myocardium: spin echo T1 weighted, TR/TE=300/20 ms; for SE T2 signal intensity, infarct / SE T2 signal intensity, normal myocardium: spin echo T2 weighted, TR/TE=4000/80 ms
Description: Images were acquired at room temprature using a GE CSI 2.0 T system. Each heart was positioned with its long axis parallel to the main magnetic field such that axial images would present short axis views of the heart. All images were obtained using a slice thickness of 2 mm, FOV of 30 mm, and a raw data matrix of 128×256 interpolated to 256×256 during reconstruction. TR/TE settings used for spin echo images are indicated below. Gradient echo images were obtained using a TR of 600 ms, with the radio frequency pulse power set very low such that no signal saturation was evident following multiple pulses and images would contain no T1 weighting.
Group 3 (n=11) received 1.0 mmol/kg DyDTPA-BMA, group 4 (n=7) received 0.2 mmol/kg of GdDTPA-BMA and group 5 (n=7) received no contrast agents. The imaging protocol for each heart consisted of spin echo T1-weighted (TR/TE=300/20 ms, NEX=4) and T2-weighted (TR/TE=4000/80 ms; NEX=2), a set of four-echo T2-weighted images (TR=4000 ms, TE=20, 40, 60 and 80 ms, NEX=2) for estimation of regional T2 values, and a set of gradient-recalled images (TE=10, 15, 20 and 30 ms, NEX=4) for estimation of region T2* values. TTC staining of the heart was performed to verify the presence of infarction.
Signal intensities were measured from ROIs selected over infarcted and uninfarcted myocardium. The same ROIs were applied to all images obained from each heart.
A series of gradient recalled and spin echo MR images were obtained to resolve the effects of GdDTPA-BMA on T2-weighted images and DyDTPA-BMA on T1-weighted images and also to more thoroughly characterize the differences in contrast media-induced T2 and T2* enhancement between infarcted and normal myocardium. Table III summarises the observed alterations in regional signal intensity and relaxation rates following administration of either GdDTPA-BMA or DyDTPA-BMA.

[10] = in vivo; cited from earlier work
[11] = test system: infarcted and non-ischemic myocardium; conditions: pig, in vivo
Experimental: as §1
The total amount of gadolinium and dysprosium in samples of infarcted and non-ischemic myocardium was quantified by ICP-AES.
Paired t-tests (two-tailed) were used to compare the gadolinium and dysprosium content, respectively, in infarcted and non-ischemic myocardium within the group. […] In addition, the extracellular concentrations of gadolinium and dysprosium were further compared with the content of gadolinium and dysprosium in tissue samples.

| SMILES | metal content in infarcted region vs normal myocardium [2] | concentration ratio, reperfused infarcted vs normal myocardium [2] | concentration course in dialysate [3] | duration of plateau in dialysate [3] [min] | concentration in dialysate after early peak [3] | distribution in infarcted heart [4] | time to plateau concentration in dialysate [5] [min] | time of early peak in dialysate [5] [min] | differential enhancement of reperfused infarction, T1-weighted ([9]; T1-weighted images) | delineation of infarcted region, T2-weighted ([9]; T2-weighted images) | signal intensity of infarcted region, T2-weighted ([9]; T2-weighted images) | signal intensity of normal region, T2-weighted ([9]; T2-weighted images) | T2, infarct [9] [ms] | T2, normal myocardium [9] [ms] | GRE signal intensity, infarct [9] | GRE signal intensity, normal myocardium [9] | T2*, infarct [9] [ms] | T2*, normal myocardium [9] [ms] | SE T1 signal intensity, infarct [9] | SE T1 signal intensity, normal myocardium [9] | other results |
| --- | --- | --- | --- | --- | --- | --- | --- | --- | --- | --- | --- | --- | --- | --- | --- | --- | --- | --- | --- | --- | --- |
| CNC(=O)CN(CCN(CCN(CC(=O)[O-])CC(=O)NC)CC(=O)[O-])CC(=O)[O-].[Dy+3] [DyDTPA-BMA] | greater amount of dysprosium in the infarcted zone | approximately 2.5 fold | increased gradually | 60 | diminished with time | allowed essentially only to distribute to the normal tissue resulting in the generation of enhanced contrast between normal and infarcted tissue | 20 to 30 | ≤ 10 | significant differential enhancement | delineated by both agents | much less reduction in signal of the infarcted region | great suppression of normal myocardium signal | 35.8 ± 1.0 | 25.9 ± 0.6 | 191 ± 34 | 105 ± 18 | 17.7 ± 1.2 | 9.4 ± 0.5 | 141 ± 14 | 88 ± 7 | infarct detection / conspicuity ([1]; T1- and T2-weighted sequences): improves the infarct detection due to susceptibility-induced loss of signal intensity in nonischemic myocardium; signal effect of accumulation in infarcted myocardium ([1]; infarcted myocardium): does not seem to result in signal loss but maintains a persistent intensity relative to the depleted signal in normal myocardium; counteraction of Gd-DTPA-BMA induced signal enhancement by Dy-DTPA-BMA ([6]; all investigated sequences, infarcted tissue): not significantly counteracted; also recorded: did not counteract the Gd-DTPA-BMA induced enhancement of the infarcted tissue; susceptibility induced (Dy induced) signal intensity reduction in infarctions ([6]; infarctions): lack of detectable susceptibility induced (i.e. Dy induced) signal intensity reduction effects in the infarctions; effect of negative agent on T1 enhancing effect of positive agent in infarcted area [7]: does not cancel the T1 enhancing effect of the positive agent in the infarcted area; signal intensity, "viable" sample ([8]; all sequences, most markedly T2-weighted): signal intensity fell with increasing Ht reading; signal intensity, "non-viable" samples ([8]; frozen samples, all sequences): no effect; contrast between infarcted and normal region vs both agents ([9]; T2-weighted images): greater contrast between the two regions than was noted when both agents were administered; SE T2 signal intensity, infarct [9]: 42 ± 4; SE T2 signal intensity, normal myocardium [9]: 12 ± 1 |
| CNC[C@H](O)[C@@H](O)[C@H](O)[C@H](O)CO.CNC[C@H](O)[C@@H](O)[C@H](O)[C@H](O)CO.O=C([O-])CN(CCN(CC(=O)[O-])CC(=O)O)CCN(CC(=O)[O-])CC(=O)O.[Gd+3] [Gd DTPA-dimeglumine] |  |  |  |  |  |  |  |  |  |  |  |  |  |  |  |  |  |  |  |  | distribution after intravenous administration [10]: rapidly distributes throughout the extracellular fluid (ECF) |
| O=C([O-])CN(CCN(CC(=O)[O-])CC(=O)O)CCN(CC(=O)[O-])CC(=O)O.[Gd+3] [Gd-DTPA, reference compound] |  |  |  |  |  |  |  |  |  |  |  |  |  |  |  |  |  |  |  |  | distribution / enhancement in 6-hour-old myocardial infarction [1]: infarct accumulation |
| CNC(=O)CN(CCN(CCN(CC(=O)[O-])CC(=O)NC)CC(=O)[O-])CC(=O)[O-].[Gd+3] [GdDTPA-BMA, reference compound] | commensurably greater content of gadolinium in that region than in normal myocardium | approximately 2.5 fold | increased gradually | 60 | diminished with time | distributed to the infarcted area of the heart | 20 to 30 | ≤ 10 | significant differential enhancement | delineated by both agents | significantly reduced compared to hearts with no contrast | not different from that of hearts with no contrast | 31.1 ± 1.2 | 34.7 ± 0.7 | 185 ± 49 | 200 ± 40 | 13.2 ± 1.5 | 17.1 ± 2.2 | 350 ± 34 | 184 ± 21 | distribution / enhancement in 6-hour-old myocardial infarction [1]: infarct accumulation; concentration in infarcted vs non-ischemic myocardium [11]: more than threefold higher concentration; infarction signal / visualization ([6]; T1- and proton density-weighted, vs no contrast agent or Dy-DTPA-BMA only): enhanced infarction signal in the T1- and proton density-weighted sequences, resulting in improved infarction visualization; signal intensity ratio (doped/undoped), T1-weighted ([8]; T1-weighted TR/TE 500/30 ms, 0.5 T): increased signal intensity effect; signal intensity ratio (doped/undoped), other sequences ([8]; T2-weighted (1500/90) and proton density-weighted (1500/30)): barely noticed in the other sequences; discrimination between "viable" and "non-viable" samples ([8]; all sequences): no significant discrimination; enhancement of infarcted region, single agent vs both agents ([9]; T1-weighted images): significantly less than that noted when both agents were present; SE T2 signal intensity, infarct [9]: 35 ± 7; SE T2 signal intensity, normal myocardium [9]: 42 ± 4 |
